Here are results for one compound from paper PMC12348863 (Molecules, 2025).

For data set [1] the following is noted: unformulated CBD; cited from earlier work.
Data set [2] can be described thus: Water solubility analysis (dissolved CBD in deionised water, HPLC). The format is physicochemical. Here is the method: The prepared CBD-GA complexes, in various molar ratios, were tested for water solubility. In a typical experiment, between 1.0 and 1.5 mg of the complex was accurately weighed and dissolved in 1 mL of deionised water (Merck Millipore, Burlington, MA, USA) under vigorous mixing. If necessary, an ultrasonic bath was employed to aid dissolution.
Following mixing, the solution was centrifuged for 3 min at 3000× g. The resulting supernatant was transferred to vials for HPLC analysis. The concentration of dissolved CBD was quantified using a chromatographic method with an Agilent 1260 Infinity HPLC system (Waldbronn, Germany). Further details are provided in Appendix A.4.
The concentration of CBD in dissolution and permeation test samples was assayed using an Agilent 1260 Infinity system with UV detection. The column in use was Luna C18(2) (Phenomenex, Torrance, CA, USA), with dimensions 150 mm × 3 mm, 3 µm particle size. The column flow rate was 0.8 mL/min at 37 °C. The elution was isocratic, with the mobile phase consisting of acetonitrile–water at a ratio of 31:9 (v/v), with 10 mM ammonium formate and 0.1% (v/v) formic acid added (without pH adjustment). The injection volume was 5 µL, and the run time was 5 min. The UV detector wavelength was set at 275 nm.

Data set [3] is described as follows: In vitro permeation (PAMPA) test. The format is in vitro ADME. Particulars: 159 µM CBD.
Method: In vitro permeation (PAMPA) tests were performed to evaluate differences in permeation parameters between regular (lipophilic) CBD and the water-soluble CBD complex. Atenolol and metoprolol were included as control substances. The initial concentration of CBD in the donor medium was 159 µM, while the concentrations of atenolol and metoprolol were 500 µM each. The experiments were conducted using a 96-well PAMPA plate with PVDF filter membranes (Sigma-Aldrich). The donor medium consisted of 50 mM phosphate buffer (pH 6.5, Sigma-Aldrich) containing 5% (v/v) DMSO, with a volume of 300 µL per well. The acceptor medium used was Pion’s “acceptor sink buffer” (Billerica, MA, USA), added in a volume of 200 µL per well. The artificial membrane solution consisted of 1% (w/v) cholesterol (Merck, Darmstadt, Germany) dissolved in a 3:1 (v/v) mixture of dodecane and n-hexane. Prior to the experiment, 4 µL of this membrane solution was applied to each filter membrane. Each test compound was assessed in 12 replicates. The total duration of the experiment was 260 min. […] At the end of this experiment, both donor and acceptor solutions were analysed by HPLC. CBD concentrations were determined using HPLC with UV detection, according to the method described by Križman [39] […] Atenolol and metoprolol concentrations were analysed by HPLC with FL detection, following the protocol of Yilmaz et al. [40] […]

Consider `C=C(C)[C@@H]1CCC(C)=C[C@H]1c1c(O)cc(CCCCC)cc1O` [pure CBD, Cannabidiol], for which the aqueous solubility entry in data set [1] was “less than 60 ng/mL”. Besides, the solubility in data set [2] (deionised water, supernatant after centrifugation, HPLC, read-out: CBD Concentration (water solubility)) was under 0.06 µg/mL. Further, the “aqueous solubility, times lower than that of the water-soluble CBD complex” value in data set [2] (unformulated CBD versus water-soluble CBD complex) is on record as “more than 400 times”. Also, the Papp at 260 min, 159 µM in data set [3] (donor 50 mM phosphate buffer pH 6.5 with 5% DMSO, 12 replicates, read-out: average permeability) was found to be 1.98 ×10⁻⁶ cm/s. The “mass retention in the lipophilic membrane” value in data set [3] (donor pH 6.5 with 5% DMSO, 260 min, average) was 84%.
